Assay results from patent US9944589B2, “Cycloproplyamine derivatives useful as inhibitors of histone demethylases KDM1A” (Istituto Europeo de Oncologia S.r.L., priority 2012, dated 2018).
“And” between values parts separate entries of the source, which are not always exact repeats. Equal entries are not always repeated. Structures can show the parent of a compound that is named as a salt.

Legend:
[1] = tested on: Acute promyelocytic leukemia NB4 cells; test: Cell growth (CellTiter-Fluor cell viability assay); type: cell-based; conditions: Homo sapiens, NB-4, 48 h; for IC50: range classes, read-out: IC50 [μM], cell growth inhibitory assay
Source text: CellTiter-Flor® (Promega) is as a nonlytic, single-reagent-addition fluorescence assay that measures the relative number of living cells in a culture population after experimental manipulation. The CellTiter-Fluor™ Cell Viability Assay measures the conserved and constitutive protease activity within live cells and therefore acts as a marker for cell viability.
Acute promyelocytic leukemia NB4 cells, (obtained from the Deutsche Sammlung von Mikroorganismen and Zellkulturen) in exponential growth, were incubated for 48 h with different concentrations of the inhibitors. After 48 h a volume of CellTiter-Fluor® Reagent equal to one fifth of volume of cell culture medium was added. The content was mixed and incubates for at least 90 min at 37° C. degree to obtain a stable signal. The fluorescence was recorded using an excitation wavelength of 360 nm and an emission at 535 nm. The IC50 was calculated using GraphPad Software.

[2] = molecular target: T1, human recombinant KDM1A (LSD1)/CoRest (Homo sapiens, UniProt O60341); test: Assay of enzyme inhibition of KDM1A (LSD1), Amplex UltraRed/peroxidase coupled; type: biochemical; conditions: 15 min preincubation, 4.5 μM mono-methylated H3-K4 peptide, range classes, read-out: IC50 [μM], KDM1A inhibition assay
T1 construct: made in house; host or cells: E. coli
Method: The experiments were performed using a mono-methylated H3-K4 peptide containing 21 amino acids (custom synthesis done by Thermo Scientific) as substrate and in a 50 mM TRIS, pH 8, 0.05 mg/ml BSA buffer.
The demethylase activity was estimated under aerobic conditions and at RT by measuring the release of H2O2 produced during the catalytic process by the Amplex® UltraRed detection system coupled with peroxidase assay. Briefly, a fixed amount of KDM1A/CoRest complex was incubated at RT for 15 minutes in the absence and/or the presence of various concentrations of inhibitor (e.g. from 0 to 100 μM, depending on the inhibitor strength) and of Amplex® UltraRed detection system coupled with peroxidase assay. The inhibitors were tested twice in duplicates at each concentration. […] The conversion of the Amplex® Ultra Red reagent to resorufin was monitored in continuous by fluorescence (excitation at 540 nm, emission at 590 nm) using a microplate reader (Infinite 200, Tecan). Arbitrary units were used to measure the level of H2O2 produced in the absence and/or in the presence of inhibition. The maximum demethylase activity of KDM1A/CoRest was obtained in the absence of inhibitors and corrected for background fluorescence in the absence of KDM1A/CoRest. The IC50 was calculated using GraphPad Software.

Compound N[C@@H]1C[C@H]1c1ccccc1 (racemic) [tranylcypromine, reference compound] has an inhibition at 100 µM ([1]; 100 μM, read-out: inhibition at 100 μM, cell growth inhibitory assay) of 10%.

For N[C@]1(Cc2ccccc2)C[C@H]1c1ccccc1 (relative stereo) [Example A-8, trans-1-benzyl-2-phenyl-cyclopropanamine hydrochloride], the IC50 [1] was 50 to 100 µM.

Compound N[C@]1(CCc2ccccc2)C[C@H]1c1ccccc1 (relative stereo) [Example A-11, trans-1-phenethyl-2-phenyl-cyclopropanamine hydrochloride] has an IC50 [1] of 10 to 50 µM.

In the case of CC[C@@]1(N)C[C@H]1c1ccc(Br)cc1 (relative stereo) [Example A-12, trans-2-(4-bromophenyl)-1-ethyl-cyclopropanamine hydrochloride], the IC50 [2] is reported as 0.1 to 1 µM and the IC50 [1] is reported as 10 to 50 µM.

In the case of N[C@]1(Cc2ccccc2)C[C@H]1c1ccc(Br)cc1 (relative stereo) [Example A-13, trans-1-benzyl-2-(4-bromophenyl)cyclopropanamine hydrochloride], the IC50 [2] is reported as 0.1 to 1 µM and the IC50 [1] is reported as 10 to 50 µM.

Work on CC[C@@]1(N)C[C@H]1c1ccc2ncccc2c1 (relative stereo) [Example A-14, trans-1-ethyl-2-(6-quinolyl)cyclopropanamine dihydrochloride] yielded an IC50 [1] of 10 to 50 µM.

N[C@]1(Cc2ccc3ccccc3c2)C[C@H]1c1ccccc1 (relative stereo) [Example A-15, trans-1-(2-naphthylmethyl)-2-phenyl-cyclopropanamine hydrochloride] gave an IC50 [1] of at most 10 µM.

With CC[C@@]1(N)C[C@H]1c1ccc(OC(F)(F)F)cc1 (relative stereo) [Example A-24, 1-ethyl-(trans)-2-[4-(trifluoromethoxy)phenyl] cyclopropanamine hydrochloride] the IC50 [2] was 1 to 5 µM and the IC50 [1] was 50 to 100 µM.

N[C@]1(Cc2ccc3ccccc3c2)C[C@H]1c1ccc(Br)cc1 (relative stereo) [Example A-29, trans-2-(4-bromophenyl)-1-(2-naphthylmethyl)cyclopropanamine hydrochloride] showed an IC50 [2] of 0.1 to 1 µM and an IC50 [1] of 10 to 50 µM.

In the case of CC[C@@]1(N)C[C@H]1c1ccc(NC(=O)c2ccc3ccccc3c2)cc1 (relative stereo) [Example A-30, trans-N-[4-[2-amino-2-ethyl-cyclopropyl]phenyl]naphthalene-2-carboxamide hydrochloride], the IC50 [1] is reported as 10 to 50 µM.

CC[C@]1(N)C[C@@H]1c1ccccc1NC(=O)c1cccc(NC(=O)OCc2ccccc2)c1 (relative stereo) [Example A-32, benzyl N-[3-[[2-[(trans)-2-amino-2-ethyl-cyclopropyl]phenyl]carbamoyl]phenyl]carbamate hydrochloride] was tested, and the IC50 [1] was 10 to 50 µM.

With CC[C@@]1(N)C[C@H]1c1cccc(NC(=O)c2cccc(NC(=O)OCc3ccccc3)c2)c1 (relative stereo) [Example A-33, benzyl N-[3-[[3-[(trans)-2-amino-2-ethyl-cyclopropyl]phenyl]carbamoyl]phenyl]carbamate hydrochloride] the IC50 [2] was 0.1 to 1 µM and the IC50 [1] was 10 to 50 µM.

CC[C@@]1(N)C[C@H]1c1ccc(NC(=O)c2cccc(Cl)c2)cc1 (relative stereo) [Example A-34, N-[4-[(trans-2-amino-2-ethyl-cyclopropyl]phenyl]-3-chloro-benzamide hydrochloride] showed an IC50 [2] of under 0.1 µM and an IC50 [1] of 10 to 50 µM.

Compound CC[C@@]1(N)C[C@H]1c1ccc(NC(=O)c2cccc(NC(=O)OCc3ccccc3)c2)cc1 (relative stereo) [Example A-37, benzyl N-[3-[[4-[(trans)-2-amino-2-ethyl-cyclopropyl]phenyl]carbamoyl]phenyl]carbamate hydrochloride] has an IC50 [2] of under 0.1 µM and an IC50 [1] of 10 to 50 µM.

CC[C@@]1(N)C[C@H]1c1ccc(NC(=O)c2ccc(NC(=O)OCc3ccccc3)cc2)cc1 (relative stereo) [Example A-38, benzyl N-[4-[[4-[(trans)-2-amino-2-ethyl-cyclopropyl]phenyl]carbamoyl]phenyl]carbamate hydrochloride] showed an IC50 [1] of at most 10 µM.

Compound CC[C@@]1(N)C[C@H]1c1ccc(NC(=O)CCc2ccccc2)cc1 (relative stereo) [Example A-40, N-[4-[(trans)-2-amino-2-ethyl-cyclopropyl]phenyl]-3-phenyl-propanamide hydrochloride] has an IC50 [2] of under 0.1 µM and an IC50 [1] of at most 10 µM.

With N[C@]1(Cc2ccc3ccccc3c2)C[C@H]1c1ccc(NC(=O)c2cccc(NC(=O)OCc3ccccc3)c2)cc1 (relative stereo) [Example A-45, benzyl N-[3-[[4-[(trans)-2-amino-2-(2-naphthylmethyl)cyclopropyl]phenyl]carbamoyl]phenyl] carbamate hydrochloride] the IC50 [1] was at most 10 µM.

For Nc1ccc([C@@H]2C[C@]2(N)Cc2ccc3ccccc3c2)cc1 (relative stereo) [Example A-119, 4-[trans-2-amino-2-(2-naphthylmethyl)cyclopropyl]aniline 2,2,2-trifluoroacetic acid], the IC50 [1] was at most 10 µM.

N[C@@]1(CO)C[C@H]1c1ccccc1 (relative stereo) [Example B-2, [1-Amino-(cis)-2-phenyl-cyclopropyl]methanol] showed an IC50 [1] of 50 to 100 µM.

CN1CCN(C(=O)CN[C@]2(C)C[C@H]2c2ccccc2)CC1 (relative stereo) [Example C-27, 2-[[trans-1-methyl-2-phenyl-cyclopropyl]amino]-1-(4-methylpiperazin-1-yl)ethanone dihydrochloride] was tested, and the IC50 [2] was under 0.1 µM.

With CN1CCN(C(=O)CN[C@@]2(C)C[C@H]2c2ccccc2)CC1 (relative stereo) [Example C-28, 2-[[cis-1-methyl-2-phenyl-cyclopropyl]amino]-1-(4-methylpiperazin-1-yl)ethanone dihydrochloride] the IC50 [2] was 1 to 5 µM.

For CN[C@]1(C)C[C@H]1c1ccccc1 (relative stereo) [Example C-29, trans-N,1-dimethyl-2-phenyl-cyclopropanamine hydrochloride], the IC50 [2] was 1 to 5 µM.

Compound CC[C@@]1(NCCN2CCCCC2)C[C@H]1c1ccccc1 (relative stereo) [Example C-31, trans-1-Ethyl-2-phenyl-N-[2-(1-piperidyl)ethyl]cyclopropanamine dihydrochloride] has an IC50 [2] of 0.1 to 1 µM.

In the case of C[C@@]1(NCc2nnc(N)o2)C[C@H]1c1ccccc1 (relative stereo) [Example C-32, 5-[[[trans-1-methyl-2-phenyl-cyclopropyl]amino]methyl]-1,3,4-oxadiazol-2-amine], the IC50 [2] is reported as 0.1 to 1 µM.

CC(=O)Nc1ccc([C@@]2(N)C[C@H]2c2ccccc2)cc1 (relative stereo) [Example D-6, N-[4-[trans-1-amino-2-phenyl-cyclopropyl]phenyl]acetamide hydrochloride] showed an IC50 [2] of 0.1 to 1 µM.

In the case of N[C@]1(Cc2ccc3ccccc3c2)C[C@H]1c1ccc(-n2cc(-c3cccc(NC(=O)OCc4ccccc4)c3)nn2)cc1 [Example A-123, benzyl N-[3-[1-[4-[2-amino-2-(2-naphthylmethyl)cyclopropyl]phenyl]triazol-4-yl]phenyl] carbamate hydrochloride], the IC50 [2] is reported as under 0.1 µM.

CC[C@]1(N)C[C@@H]1c1ccc(NC(=O)c2ccc(-c3ccccc3)cc2)cc1 [Example A-128, N-[4-[(1R,2S)-2-amino-2-ethyl-cyclopropyl]phenyl]-4-phenyl-benzamide hydrochloride] showed an IC50 [2] of under 0.1 µM.

Compound CC[C@@]1(NCc2c(OC)ccc3ccccc23)C[C@H]1c1ccccc1 [Example C-2, (1R,2S)-1-ethyl-N-[(2-methoxy-1-naphthyl)methyl]-2-phenyl-cyclopropanamine] has an IC50 [1] of 50 to 100 µM.

With CN1CCN(C(=O)CN[C@@]2(C)C[C@@H]2c2ccccc2)CC1 [Example C-3, 2-[[(1S,2R)-1-methyl-2-phenyl-cyclopropyl]amino]-1-(4-methylpiperazin-1-yl)ethanone dihydrochloride] the IC50 [2] was < 0.1 µM and 1 to 5 µM.

With C[C@]1(NCC(=O)N2CC[C@H](N)C2)C[C@@H]1c1ccccc1 [Example C-5, 1-[(3S)-3-aminopyrrolidin-1-yl]-2-[[(1S,2R)-1-methyl-2-phenyl-cyclopropyl]amino] ethanone hydrochloride] the IC50 [2] was 0.1 to 1 µM.

CN1CCN(C(=O)CN[C@]2(C)C[C@H]2c2ccccc2)CC1 [Example C-25, 2-[[(1R,2S)-1-methyl-2-phenyl-cyclopropyl]amino]-1-(4-methylpiperazin-1-yl)ethanone 2,2,2-trifluoroacetic acid] was tested, and the IC50 [2] was under 0.1 µM.

For CN1CCN(C(=O)CN[C@]2(C)C[C@@H]2c2ccccc2)CC1 [Example C-26, 2-[[(1R,2R)-1-methyl-2-phenyl-cyclopropyl]amino]-1-(4-methylpiperazin-1-yl)ethanone 2,2,2-trifluoroacetic acid], the IC50 [2] was 1 to 5 µM.
